Test results taken from ChEMBL document CHEMBL1151162, “Coumarins from Opopanax chironium. New dihydrofuranocoumarins and differential induction of apoptosis by imperatorin and heraclenin” (J Nat Prod, 2004).
Active and inactive are the calls of the source. No cut-off for these calls is given here.

How the values were obtained:
Assay type in all cases: functional, cell-based
Jurkat [1] = test: Induction of cell cycle arrest in human Jurkat cells assessed as accumulation at G2/M phase after 48 hrs
Jurkat [2] = test: Induction of apoptosis in human Jurkat cells assessed as hypodiploidic cells after 72 hrs
Jurkat [3] = test: Induction of DNA fragmentation at G2/M phase in human Jurkat cells after 72 hrs by propidium iodide and FITC-dUTP double staining
Jurkat [4] = test: Induction of cell cycle arrest in human Jurkat cells assessed as accumulation at G2/M phase at 25 ug/mL after 48 hrs
Jurkat [5] = test: Induction of DNA fragmentation at G1/S phase in human Jurkat cells after 72 hrs by propidium iodide and FITC-dUTP double staining

SMILES | Activity (Jurkat [1]) | Activity (Jurkat [2]) | Activity (Jurkat [3]) | Activity (Jurkat [4]) | Activity (Jurkat [5])
CC1(C)O[C@@H]1COc1c2occc2cc2ccc(=O)oc12 | Active | Active | Active |  | 
CC(C)=CCOc1c2occc2cc2ccc(=O)oc12 | inactive |  |  | inactive | Active
